Measurements reported in paper PMC9510668 (Frontiers in Pharmacology, 2022).
In brackets after ≈: the same amount, converted by molar mass. Like-named read-outs stand apart in the source and are kept apart here.

How the values were obtained:
[1] = Effect of NaTC (bile salt) concentration on solubility; type: physicochemical; conditions: for solubility at 2 h: pH 5.5, read-out: Solubility at Fasted state
Method: (§1) After incubation of 2 h, 1 ml aliquot of each sample was withdrawn from the tube. The samples were filtered using a 0.22 μm filter, the first 0.8 ml was discarded, and the remaining 0.2 ml was analyzed by the HPLC. The specific experiments containing different conditions are as follows: • i) Solubility testing in simulated fasted and fed media
In this experiment, a final pH of 5.5 was used, representing a mean front luminal pH at fed state.

CYP3A4 = conditions: 2020, cited from earlier work
P-gp = tested on: P-gp; set-up: method as in Minocha et al., 2012; Boudou-Rouquette et al., 2016; conditions: in vitro; ref Minocha et al., 2012; Boudou-Rouquette et al., 2016; cited from earlier work
Caco-2 cell = tested on: Caco-2 cell; set-up: method as in Food and Drug Administration, 2009; conditions: ref Food and Drug Administration, 2009; cited from earlier work
[2] = cited from earlier work
MATE2-K = tested on: MATE2-K; set-up: method as in Sauzay et al., 2016; conditions: ref Sauzay et al., 2016; cited from earlier work
OCT1 = tested on: OCT1; set-up: method as in Ellawatty et al., 2018; conditions: ref Ellawatty et al., 2018; cited from earlier work
BCRP1 = tested on: BCRP1; set-up: method as in Minocha et al., 2012; Boudou-Rouquette et al., 2016; conditions: in vitro; ref Minocha et al., 2012; Boudou-Rouquette et al., 2016; cited from earlier work
[3] = Equilibrium solubility in pH buffers and biorelevant media; type: physicochemical
Method: as §1
Specifically, solubility media were prepared using different phosphate buffers. Media pH was adjusted to the required value (Table 1, target value) using KOH or H3PO4, which were equal to the pH value of gastrointestinal tract compartment in a fasted and fed state in humans, respectively. • ii) Biorelevant solubility

[4] = ref Verheijen et al., 2017, cited from earlier work
[5] = cited from earlier work; remark: listed apart in the source
[6] = cited from earlier work; for Solubility: ref Herbrink et al., 2018; for LogP: 2022
UGT1A1 = conditions: ref Xu et al., 2010; cited from earlier work
OATP1B1 = conditions: ref Xu et al., 2010; cited from earlier work

## Cc1ccc(Nc2nccc(N(C)c3ccc4c(C)n(C)nc4c3)n2)cc1S(N)(=O)=O [PAZ, pazopanib]
[1]; 15 mM compared with 30 mM NaTC
  Increase of solubility with NaTC: about 4 fold
[1]; biorelevant medium with sodium taurocholate (NaTC), 37 °C, pH 5.5, fassgf or other biorelevant, thermodynamic from solid, NaTC 3.75 mM
  solubility at 2 h: 1.51 µg/mL
[1]; biorelevant medium with sodium taurocholate (NaTC), 37 °C, pH 5.5, fassgf or other biorelevant, thermodynamic from solid, NaTC 15 mM
  solubility at 2 h: 6.93 µg/mL
[1]; biorelevant medium with sodium taurocholate (NaTC), 37 °C, pH 5.5, fassgf or other biorelevant, thermodynamic from solid, NaTC 30 mM
  solubility at 2 h: 27.9 µg/mL
[1]; biorelevant medium with sodium taurocholate (NaTC), pH 5.5, NaTC 7.5 mM
  solubility at 2 h: 3.02 µg/mL
[1]; medium with 0 mM NaTC, 37 °C, pH 5.5, fassgf or other biorelevant, thermodynamic from solid, NaTC 0 mM
  solubility at 2 h: 0.36 µg/mL
CYP3A4; ref Food and Drug Administration, 2009, Yamada et al.
  Inducer of CYP3A4: moderate inducer
CYP3A4; ref Yamada et al.
  Emax CYP3A4, maximum inductive effect: 2.43 µM
P-gp
  Substrate for efflux transporter P-gp: weak substrate
Caco-2 cell
  Papp, Caco-2 cell permeability: 16.9 ✕10^−6 cm⋅s^−1
[2]; co-administration with ketoconazole, ref Van Leeuwen et al., 2014
  Increase in AUC of PAZ: approximately 66%
[2]; combined with carbamazepine, ref Van Leeuwen et al., 2014
  Decrease in AUC of PAZ: 30%
[2]; concomitant drugs that increase gastric pH, ref Budha et al., 2012
  Reduction of oral bioavailability: approximately 39%
[2]; with lapatinib, ref Van Leeuwen et al., 2014
  Increase in AUC of PAZ: 59%
MATE2-K
  Ki: 3.3 µM
OCT1
  Km: 3.47 µM
  OCT1 Vmax: 530 pmol/min/mg protein
BCRP1
  Substrate for BCRP1: moderate substrate
[3]; 37 °C, pH 1.3, fassgf or other biorelevant, thermodynamic from solid, FaSSGF-PH1.3, read-out: Solubility (mean ± SD) at fasted state
  solubility at 2 h: 436.1 ± 1 µg/mL (≈ 997 µM)
[3]; 37 °C, pH 4.5, fassgf or other biorelevant, thermodynamic from solid, FEDGAS-PH4.5, read-out: Solubility (mean ± SD) at fed state
  solubility at 2 h: 147 ± 1.9 µg/mL (≈ 336 µM)
[3]; 37 °C, pH 5.8, thermodynamic from solid, FeSSIF-V2-PH5.8, read-out: Solubility (mean ± SD) at fed state
  solubility at 2 h: 6.5 ± 1.3 µg/mL (≈ 14.9 µM)
[3]; FEGGAS medium, 37 °C, fassgf or other biorelevant, thermodynamic from solid, fed state, used for food simulation, read-out: Mean value of the three solubility in the FEGGAS medium
  solubility at 2 h: 167 µg/mL (≈ 381 µM)
[3]; PH7.0
  Solubility (mean ± SD) at fed state: N (Not detected (below the detection limit))
[3]; PH7.5
  Solubility (mean ± SD) at fed state: N (Not detected (below the detection limit))
[3]; pH 3, FEDGAS-PH3.0, read-out: Solubility (mean ± SD) at fed state
  solubility at 2 h: 322.7 ± 2.6 µg/mL (≈ 738 µM)
[3]; pH 4.78, FaSSGF-PH4.78 (elevated gastric pH after esomeprazole), read-out: Solubility (mean ± SD) at fasted state
  solubility at 2 h: 46.1 ± 3.4 µg/mL (≈ 105 µM)
[3]; pH 4.9, FEDGAS-PH4.9, read-out: Solubility (mean ± SD) at fed state
  solubility at 2 h: 40 ± 0.7 µg/mL (≈ 91.4 µM)
[3]; pH 6.5, FaSSIF-V2-PH6.5, read-out: Solubility (mean ± SD) at fasted state
  solubility at 2 h: 0.63 ± 0.18 µg/mL (≈ 1.44 µM)
[3]; pH ≥ 7.0
  Solubility: cannot even be detected
[3]; phosphate buffer, 37 °C, pH 3, aqueous buffer, thermodynamic from solid, PH3.0, read-out: Solubility (mean ± SD) at fasted state
  solubility at 2 h: 391 ± 4.6 µg/mL (≈ 895 µM)
[3]; phosphate buffer, 37 °C, pH 4.5, aqueous buffer, thermodynamic from solid, PH4.5, read-out: Solubility (mean ± SD) at fasted state
  solubility at 2 h: 68.3 ± 3.3 µg/mL (≈ 156 µM)
[3]; phosphate buffer, 37 °C, pH 5, aqueous buffer, thermodynamic from solid, PH5.0, read-out: Solubility (mean ± SD) at fasted state
  solubility at 2 h: 24.2 ± 2.3 µg/mL (≈ 55.3 µM)
[3]; phosphate buffer, 37 °C, pH 6, aqueous buffer, thermodynamic from solid, PH6.0, read-out: Solubility (mean ± SD) at fasted state
  solubility at 2 h: 7.6 ± 0.6 µg/mL (≈ 17.4 µM)
[3]; phosphate buffer, 37 °C, pH 7, aqueous buffer, thermodynamic from solid, PH7.0, read-out: Solubility (mean ± SD) at fasted state
  solubility at 2 h: < 0.27 µg/mL
[3]; phosphate buffer, 37 °C, pH 7.5, aqueous buffer, thermodynamic from solid, PH7.5, read-out: Solubility (mean ± SD) at fasted state
  solubility at 2 h: < 0.27 µg/mL
[3]; phosphate buffer, pH 2, PH2.0, read-out: Solubility (mean ± SD) at fasted state
  solubility at 2 h: 263.9 ± 1.1 µg/mL (≈ 603 µM)
[4]
  fup, fraction of free drug in plasma: 0.011% ([Verheijen et al., 2017])
[4]; value used in the model
  fup, fraction of free drug in plasma: 0.00011
[5]; oral 800 mg dose in humans, ref Deng et al., 2013
  Mean oral bioavailability: approximately 21.4%
[5]; ref Deng et al., 2013
  Elimination via feces, administered radioactivity dose: approximately 82.2%
  Elimination via feces, unchanged drug: 67%
  Renal elimination, of the administered dose: approximately 2.6%
[5]; ref Food and Drug Administration, 2009
  Higher bioavailability of 400 mg dose than 800 mg dose: 40%
[6]; above pH 4.0
  Solubility: practically insoluble
[6]; pH = 1.0
  Solubility: very slight solubility
[6]; ref Evaluation, 1997
  Biopharmaceutics Classification System (BCS) class: class II
[6]; ref Krens et al.
  LogP: 3.33
[6]; ref PMDA
  LogP: 3.65
UGT1A1
  IC50: 1.2 µM
OATP1B1
  IC50: 0.79 µM
